From US20080145313A1, “Compositions and Methods for the Treatment and Prevention of Neoplastic Disorders” (Genesis Research & Development Corporation Limited, priority 2006, published 2008)

Legend:
A549 cells = assay: Growth inhibition of siRNA-transfected A549 cells, SYBR Green I DNA content; assay type: cell-based, human; details: 10 nM siRNA, DNA content 96 hours after transfection
Method: A549 cells (human lung cancer cell line; ATCC No. CCL-185), SK-MeI-5 cells (human melanoma cell line; ATCC No. HTB-70), MCF-7 cells (human adenocarcinoma cell line; ATCC No. HTB-22), HCT-116 cells (colorectal carcinoma; ATCC CCL-247) and HCT-116 p53 null cells (derived from ATCC No. CCL-247; Bunz et al., Science 282:1497-1501, 1998) were cultured in RPMI 1640 medium with 10% v/v heat-inactivated fetal calf serum (FCS). Cells were seeded at a density of 5×10^4 cells/cm^2 in multi-well tissue culture plates. Sequences of Stealth™ siRNA duplexes (Invitrogen) targeting human ribonucleotide reductase subunit 1 (SEQ ID NO: 22) and subunit 2 (SEQ ID NO; 38) are given in SEQ ID NO: 4830-4832 (DNA), and SEQ ID NO: 5136-5138 (RNA) for RRM1, and SEQ ID NO: 5306-5308 (DNA), and SEQ ID NO: 5303-5305 (RNA) for RRM2. siRNAs were transfected at different concentrations into cells using Lipofectamine™ RNAiMAX transfection reagent (Invitrogen). Non-specific siRNA (SEQ ID NO: 4804 and 4805 (DNA), and SEQ ID NO: 5301 and 5302 (RNA)) were used as controls. The cellular DNA content was measured using a SYBR Green I-based fluorometric assay at 24, 48, 72 and 96 hours after transfection (120 hours for the MCF-7 cells), as follows. At the indicated time points following reverse transfection, cells were harvested and frozen at −80° C. overnight. Cells were thawed and cell lysis buffer (phosphate-buffered saline (PBS) containing 1% Triton X-100, pH 7) and SYBR Green I (1:10^5 V/V; Invitrogen) was added to the wells and incubated overnight in the dark at 4° C.
The following day, cell lysates were mixed thoroughly, and DNA fluorescence was measured with a Wallac Victor^2 plate reader (Turku, Finland) set at an excitation frequency of 485 nm and measuring emission at 535 nm.
To determine the duration of the knock-down effect of RRM1-targeting siRNA, A549 cells were reverse transfected with 1 or 10 nM RRM1-3 (SEQ ID NO: 4832 (DNA, and SEQ ID NO: 5138 (RNA)) or control siRNA (SEQ ID NO: 4804 (DNA), and SEQ ID NO: 5301 (RNA)), and growth followed over time. Growth inhibition was measured daily as described above for up to ten days. RRM1-3-mediated RRM1 silencing inhibited growth for at least 10 days post-transfection at both 1 and 10 nM (FIG. 11).
siRNA-mediated inhibition of cancer cell growth was determined in A549 cells as follows. A549 cells (human lung cancer cell line; ATCC No. CCL-185) were cultured in RPMI 1640 medium with 10% v/v heat-inactivated fetal calf serum. Cells were seeded at a density of 5×10^3 cells/cm^2 in multi-well tissue culture plates. Stealth™ siRNA duplexes (Invitrogen) targeting genes involved in cancer energy and metabolism pathways and listed in Table 9, were transfected at 10 nM into cells using Lipofectamine™ RNAiMAX transfection reagent (Invitrogen). Non-specific siRNA (SEQ ID NO: 4804 and 4805 (DNA), and SEQ ID NO: 5301 and 5302 (RNA)) were used as controls. The cellular DNA content was measured using a SYBR Green I-based fluorometric assay at 96 hours after transfection. The cells were harvested and frozen at −80° C. overnight. Cells were thawed and cell lysis buffer (phosphate-buffered saline (PBS) containing 1% Triton X-100, pH 7) and SYBR Green I (1:10^5 v/v; Invitrogen) was added to the wells and incubated overnight in the dark at 4° C. The following day, cell lysates were mixed thoroughly, and DNA fluorescence was measured with a Wallac Victor^2 plate reader (Turku, Finland) set at an excitation frequency of 485 nm and measuring emission at 535 nm.
Three different siRNAs were tested for each target gene. The average fluorescence units from three replicate wells, representing the amount of DNA per well, were used to determine the effect on growth inhibition. The results are given in Table 10 (energy and metabolism gene targets) and Table 11 (transporter gene targets).
siRNA-mediated RNAi was also determined on a panel of different cell lines. […]

[1] = system: target transcript mRNA in A549 cells; assay: Level of mRNA of target transcript in A549 cells by quantitative RT-PCR (Tables 12 and 13); assay type: cell-based, human; details: 24 h post-transfection; for mRNA knockdown of energy and metabolism gene target transcript, 0.1 nM / mRNA knockdown of transporter gene target transcript, 0.1 nM: 0.1 nM siRNA; for mRNA knockdown of energy and metabolism gene target transcript, 1 nM / mRNA knockdown of transporter gene target transcript, 1 nM: 1 nM siRNA; for mRNA knockdown of energy and metabolism gene target transcript, 10 nM: 10 nM siRNA
Method: A549 cells were transfected as described before with 0.1, 1.0 and 10 nM siRNA as listed in Tables 10 and 11 and the relative mRNA levels quantified 24 h post-transfection. RNA was purified from cells using Trizol® extraction as per the manufacturer's protocol (Invitrogen). cDNA was prepared by digesting approximately 200 ng purified RNA with DNAse I (Invitrogen) for 15 minutes at room temperature, followed by 15 minutes at 65° C. in the presence of 25 mM EDTA. 30 ng random primers were added and incubated for 10 minutes at 65° C., 1 minute on ice; Superscript® III polymerase (Invitrogen) was added in presence of 5 nM DTT (Invitrogen) and 1 mM deoxyribonucleotides (Invitrogen), and the reaction incubated at 25° C. for 5 minutes, followed by an hour at 50° C. cDNA was diluted 1:3 in 10 mM Tris pH 7.0, and quantitative RT-PCR carried out on an ABI Prism 7900HT (Applied Biosciences, Inc., Foster City, Calif.) using FastStart TaqMan SYBRGreen (Roche, Basel, Switzerland) or Platinum SYBR Green (Invitrogen) and 360 nM of the primers specific for gene targets and housekeeping genes HPRT and Lamin. Reduction in target mRNA levels following siRNA transfection are given in Tables 12 and 13, together with the gene specific primer sequences. Primer sequences used for the housekeeping genes HPRT and Lamin are given in SEQ ID NO: 4885-4888.

Row | Substance | mRNA knockdown of energy and metabolism gene target transcript, 0.1 nM [1] | mRNA knockdown of energy and metabolism gene target transcript, 1 nM [1] | other results
1 | SEQ ID NO: 4818: siRNA targeting PFKL (chain 1 AATGTCTGTCTTCATCTTCTCCGTC; chain 2 AAUGUCUGUCUUCAUCUUCUCCGUC; chemistry not given here; one strand in two spellings) | – | – | Growth Inhibition in A549 cells (A549 cells): − (no growth inhibition with any siRNA)
2 | SEQ ID NO: 4837: siRNA targeting DHFR (chain 1 TTTCAAAGTCTTGCATGATCCTTGT; chain 2 UUUCAAAGUCUUGCAUGAUCCUUGU; chemistry not given here; one strand in two spellings) | – | – | Growth Inhibition in A549 cells (A549 cells): − (no growth inhibition with any siRNA)
3 | SEQ ID NO: 4812: siRNA targeting HK-II (chain 1 ATACTGGTCAACCTTCTGCACTTGG; chain 2 AUACUGGUCAACCUUCUGCACUUGG; chemistry not given here; one strand in two spellings) | – | – | Growth Inhibition in A549 cells (A549 cells): − (no growth inhibition with any siRNA)
4 | SEQ ID NO: 4986: siRNA targeting DCK (chain 1 ACGATCTGTGTATAGTGACAGGTAT; chain 2 ACGAUCUGUGUAUAGUGACAGGUAU; Both strands are one antisense strand in DNA/RNA notation, chemistry not given here, further chemistry not given here; one strand in two spellings) | – | – | Growth Inhibition in A549 cells (A549 cells): − (no growth inhibition with any siRNA)
5 | SEQ ID NO: 4867: siRNA targeting UQCRC2 (chain 1 AAATGCATTTGCCTCTGCACTTCCC; chain 2 AAAUGCAUUUGCCUCUGCACUUCCC; Both strands are one antisense strand in DNA/RNA notation, chemistry not given here, further chemistry not given here; one strand in two spellings) | – | – | Growth Inhibition in A549 cells (A549 cells): − (no growth inhibition with any siRNA)
6 | SEQ ID NO: 4949: siRNA targeting ATP6V1A (chain 1 TATAAATAGAGGCTTCTCTAGCAGC; chain 2 UAUAAAUAGAGGCUUCUCUAGCAGC; chemistry not given here; one strand in two spellings) | – | – | Growth Inhibition in A549 cells by 10 nM siRNA (A549 cells; A549 cells, transporter gene targets): − (no growth inhibition)
7 | 3580 (AGTGAAGCGGTTTTTCTCCAAGTACTC; chemistry not given here) [compound 3580] | ++ (70-90% mRNA knockdown) | ++ (70-90% mRNA knockdown) | –
8 | 3549 (GGCAACTACCGCGAGCTGCGCTGGTT; chemistry not given here) [compound 3549] | + (50-70% mRNA knockdown) | +++ (>90% mRNA knockdown) | mRNA knockdown of energy and metabolism gene target transcript, 10 nM [1]: ++ (70-90% mRNA knockdown)
9 | SEQ ID NO: 4914: siRNA targeting SLC19A2 (ThTr1) (chain 1 TTATATAACCAACTGCAAACACAGC; chain 2 UUAUAUAACCAACUGCAAACACAGC; chemistry not given here; one strand in two spellings) | – | – | mRNA knockdown of transporter gene target transcript, 0.1 nM [1]: ++ (70-90% mRNA knockdown); mRNA knockdown of transporter gene target transcript, 1 nM [1]: +++ (>90% mRNA knockdown)
10 | 1700 (CAAGAACGTGAAGCTCCCTGACGCCTA; chemistry not given here) [compound 1700] | + (50-70% mRNA knockdown) | ++ (70-90% mRNA knockdown) | –
11 | 3576 (AAGCGGTTTTTCTCCAAGTACTC; chemistry not given here) [compound 3576] | +++ (>90% mRNA knockdown) | +++ (>90% mRNA knockdown) | –
12 | 3547 (CAACTACCGCGAGCTGCGCTGGTT; chemistry not given here) [compound 3547] | ++ (70-90% mRNA knockdown) | ++ (70-90% mRNA knockdown) | mRNA knockdown of energy and metabolism gene target transcript, 10 nM [1]: +++ (>90% mRNA knockdown)
13 | 3596 (AACAGGAAGATCCTGCTCATCAG; chemistry not given here) [compound 3596] | + (50-70% mRNA knockdown) | ++ (70-90% mRNA knockdown) | –
14 | 3541 (GAGCCAAGGGTAGGAGCCCTACACTAGG; chemistry not given here) [compound 3541] | − (<50% mRNA knockdown) | − (<50% mRNA knockdown) | mRNA knockdown of energy and metabolism gene target transcript, 10 nM [1]: − (<50% mRNA knockdown)
15 | 3539 (GCCAAGGGTAGGAGCCCTACACTAGG; chemistry not given here) [compound 3539] | − (<50% mRNA knockdown) | − (<50% mRNA knockdown) | mRNA knockdown of energy and metabolism gene target transcript, 10 nM [1]: − (<50% mRNA knockdown)
16 | 3533 (AGATTGGAAGCCACCACATCAGTCTCAACA; chemistry not given here) [compound 3533] | − (<50% mRNA knockdown) | ++ (70-90% mRNA knockdown) | –
17 | SEQ ID NO: 4915: siRNA targeting SLC19A2 (ThTr1) (chain 1 ATGACATTCAGGCTGAACAGCGACC; chain 2 AUGACAUUCAGGCUGAACAGCGACC; chemistry not given here; one strand in two spellings) | – | – | mRNA knockdown of transporter gene target transcript, 0.1 nM [1]: ++ (70-90% mRNA knockdown); mRNA knockdown of transporter gene target transcript, 1 nM [1]: ++ (70-90% mRNA knockdown)
18 | 1696 (AACGTGAAGCTCCCTGACGCCTA; chemistry not given here) [compound 1696] | − (<50% mRNA knockdown) | − (<50% mRNA knockdown) | –
19 | 3585 (AACAGAGGAGCAAGATACAGGC; chemistry not given here) [compound 3585] | ++ (70-90% mRNA knockdown) | ++ (70-90% mRNA knockdown) | –
